Measured values taken from US7230028B2, “Dimeric compounds and their use as anti-viral agents” (priority 2001, dated 2007).
Converted amounts (≈) assume the structure as drawn.

What was measured:
[1] = tested on: A/Bayern/7/95 BVL006 (H1N1); test: Plaque reduction assay (PRA) in MDCK cells; format: cell-based, influenza A H1N1; details: Influenza A virus, MDCK, A/Bayern/7/95 (H1N1), read-out: EC50 PRA A/Bay
Method: (§1) Madin Darby Canine Kidney (MDCK) cells are seeded into six well tissue culture plates and grown to confluency via standard methods. Influenza viruses are diluted in a minimal volume of phosphate buffered saline supplemented with 0.2% bovine serum albumin to yield an estimated titre of 50–100 plaque forming units (pfu) per well. After adsorption to the MDCK cells for one hour at 37° C. in a 5% CO2 atmosphere the viral inocula is aspirated and replaced with viral growth media (minimal Eagle's media supplemented with BSA, trypsin and insulin/transferrin/selenium at optimal concentrations) containing sufficient agar or agarose (generally 1–2%) to cause the media to gel at room temperature and at 37° C. in a 5% CO2 atmosphere until plaques develop (generally 2–4 days). Plaques can be visualised with a suitable stain (e.g. 0.4% crystal violet in formal saline) before counting.

A/WSN/33 BVLV09 (H1N1) = test: Plaque reduction assay (PRA) in MDCK cells; format: cell-based, influenza A H1N1; details: A/WSN/33 (H1N1)
Method: as §1

[2] = tested on: A/Victoria/3/75 BVLV017 (H3N2); test: Plaque reduction assay (PRA) in MDCK cells; format: cell-based; details: Influenza A virus, H3N2, MDCK, read-out: EC50 PRA A/Vic, plaque reduction, A/Victoria/3/75 (H3N2)
[3] = tested on: A/Sydney/5/97 BVLV015 (H3N2); test: Plaque reduction assay (PRA) in MDCK cells; format: cell-based, influenza A H3N2; details: Influenza A virus, MDCK, A/Sydney/5/97 (H3N2), read-out: EC50 PRA A/Syd
Method: as §1

[4] = tested on: A/New Caledonia/20/99 BVLV008 (H1N1); test: Plaque reduction assay (PRA) in MDCK cells; format: cell-based
[5] = tested on: A/Panama/2007/99 BVLV008 (H3N2); test: Plaque reduction assay (PRA) in MDCK cells; format: cell-based
B/Harbin/7/95 BVLV008 = test: Plaque reduction assay (PRA) in MDCK cells; format: cell-based; details: Influenza B virus, read-out: EC50 PRA B/Harb
Method: as §1

B/Hong Kong/5/72 BVLV012 = test: Plaque reduction assay (PRA) in MDCK cells; format: cell-based, influenza B; details: Influenza B virus, MDCK, read-out: EC50 PRA B/HongK
Method: as §1

[6] = Rat lung retention assay (intra-tracheal dosing); format: in vivo; details: rat, in vivo, 0.1 mg/kg
Method: Rodents are anaesthetised and dosed with compound of interest by the intra-tracheal route at a dose volume of 0.8 ml/kg. The rodent is then held in the vertical position until full recovery is achieved. […] Any analytical method suitable for detection of this type of compound may be used. The time at which levels of compound fall below the sensitivity of the analytical techniques identified will determine the residency time of the compound in lung tissue.
Please note that all experiments included a co-dosed internal standard, namely compound 3 of International Patent Publication No. WO 02/20514, to permit comparison. The data are expressed as a ratio with respect to this compound, the structure of which is shown below.

CC(=O)N[C@H]1[C@H]([C@H](O)[C@H](O)CO)OC(C(=O)O)=C[C@@H]1NC(=N)N [Compound A, 4-guanidino-2-deoxy-2,3-dehydro-N-acetylneuraminic acid]
EC50 [1]: 35 ng/mL (≈ 105 nM) | EC50 PRA A/WSN (A/WSN/33 BVLV09 (H1N1)): > 100 ng/mL | EC50 (A/WSN/33 BVLV09 (H1N1); Influenza A virus, MDCK): 56 ng/mL (≈ 169 nM) | EC50 [2]: 5.5 ng/mL (≈ 16.6 nM) | EC50 [3]: 2.4 ng/mL (≈ 7.22 nM) | EC50 ([4]; Influenza A virus, H1N1, MDCK, read-out: EC50 PRA A/New, plaque reduction, A/New Caledonia/20/99 (H1N1)): 0.27 ng/mL (≈ 0.812 nM) | EC50 PRA A/New ([4]; plaque reduction, A/New Caledonia/20/99 (H1N1)): 0.23 ng/mL (≈ 0.692 nM) | EC50 ([5]; Influenza A virus, H3N2, MDCK, read-out: EC50 PRA A/Pan, plaque reduction, A/Panama/2007/99 (H3N2)): 2.7 ng/mL (≈ 8.12 nM) | EC50 PRA A/Pan ([5]; plaque reduction, A/Panama/2007/99 (H3N2)): 3 ng/mL (≈ 9.03 nM) | EC50 (B/Harbin/7/95 BVLV008): 0.19 ng/mL (≈ 0.572 nM) | EC50 (B/Hong Kong/5/72 BVLV012): 21 ng/mL (≈ 63.2 nM) | Ratio Mean (lung) (cmpd)/PCT AU01/01128 compound 3 ([6]; 48 h): 0.26 | Ratio Mean (lung) (cmpd)/PCT AU01/01128 compound 3 ([6]; 168 h): 0.08
